Usually inhibition stands for the relative decrease from the control value, in per cent.

Test [1] addresses T1, bradykinin 1 receptor (B1R) of the rat (Rattus norvegicus, UniProt P97583).
T1 construct: expressed in transfected cells; host or cells: CHO K1 cells
T1 sequence (P97583 1-337): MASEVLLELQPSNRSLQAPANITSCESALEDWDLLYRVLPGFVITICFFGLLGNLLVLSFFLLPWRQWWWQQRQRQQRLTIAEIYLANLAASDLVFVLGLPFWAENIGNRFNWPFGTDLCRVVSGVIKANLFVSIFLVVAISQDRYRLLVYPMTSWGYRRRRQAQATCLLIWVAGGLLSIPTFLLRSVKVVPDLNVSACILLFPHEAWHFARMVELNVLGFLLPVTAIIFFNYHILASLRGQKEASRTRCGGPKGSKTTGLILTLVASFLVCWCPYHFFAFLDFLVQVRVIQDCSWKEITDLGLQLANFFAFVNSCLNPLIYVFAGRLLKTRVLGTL
The test is described as follows: Functional investigation on the rat bradykinin 1 receptor (B1R), Ca2+ FLIPR assay in CHO K1 rB1R cells. It counts as cell-based. Conditions: test substance 10 μM, Ca2+ FLIPR, CHO K1 rB1R cells; for B1R Ant. r [10 μM] % Inhibition: B1R antagonism rat; for inhibition at 10 µM: CHO-K1, B1R antagonism rat, read-out: B1R Ant. r [10 μM] % Inhibition. Put shortly: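 Stably transfected CHO K1 cells loaded with Fluo-4; FLIPR Ca2+ fluorescence peak (ex 488/em 540 nm). Compound added first (agonism vs Lys-Des-Arg9-bradykinin ≥50 nM human, Des-Arg9-bradykinin 10 μM rat), then after 10-20 min agonist at EC80; antagonism as % inhibition, IC50 from concentration series, n=2-3, N≥2.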

Test [2] has as its target T2, serotonin (5-HT) reuptake (Rattus norvegicus, UniProt P31652).
T2 construct: synaptosomes are freshly isolated from areas of the rat brain; from tissue; host or cells: rat brain synaptosomes (P2 fraction)
As to the kind of experiment: Inhibition of serotonin (5HT) reuptake in synaptosomes from rat brain. The format is biochemical. As to conditions: test concentration of 10 μM; for inhibition at 10 µM: read-out: 5-HT (inhibition of reuptake of serotonin, % inhibition). Put shortly:
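Freshly isolated rat brain synaptosomes (P2 fraction) used for 5-HT reuptake. Test compound at 10 μM, activity given as % inhibition.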

T2 sequence (P31652 whole entry): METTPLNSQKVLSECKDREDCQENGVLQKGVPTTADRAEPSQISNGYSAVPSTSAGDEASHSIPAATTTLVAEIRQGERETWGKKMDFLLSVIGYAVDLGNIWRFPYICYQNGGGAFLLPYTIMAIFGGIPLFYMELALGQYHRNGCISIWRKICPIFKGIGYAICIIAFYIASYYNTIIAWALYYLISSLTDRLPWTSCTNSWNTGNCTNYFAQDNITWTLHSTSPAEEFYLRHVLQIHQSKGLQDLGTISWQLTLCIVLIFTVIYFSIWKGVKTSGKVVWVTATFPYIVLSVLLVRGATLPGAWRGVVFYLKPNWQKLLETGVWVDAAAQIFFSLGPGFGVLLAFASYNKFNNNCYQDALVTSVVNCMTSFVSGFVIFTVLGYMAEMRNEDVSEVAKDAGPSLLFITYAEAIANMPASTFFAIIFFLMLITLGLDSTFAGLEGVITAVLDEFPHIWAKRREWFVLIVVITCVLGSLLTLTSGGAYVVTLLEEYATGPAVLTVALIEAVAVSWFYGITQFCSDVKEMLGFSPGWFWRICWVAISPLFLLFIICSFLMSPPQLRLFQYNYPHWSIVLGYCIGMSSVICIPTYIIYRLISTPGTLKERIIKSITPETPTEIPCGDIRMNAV

For `Cc1cc(C)c(S(=O)(=O)N(C)CCOCC(=O)NCCC2CCC(C(c3cccc(F)c3)N(C)C)CC2)c(C)c1` (centres unmarked) [Example 587], in test [1], the “B1R Ant. r [10 μM] % Inhibition” value is 16%. Moreover, in test [2], the “5-HT (inhibition of reuptake of serotonin, % inhibition)” value is recorded as 86%.
As to `COc1ccc(S(=O)(=O)N(C)CCOCC(=O)NCC2CCC(C(c3cccs3)N(C)C)CC2)cc1OC` (centres unmarked) [Example 127, 2-(2-(3,4-Dimethoxy-N-methylphenylsulfonamido)ethoxy)-N-((4-((dimethylamino)(thiophen-2-yl)methyl)cyclohexyl)methyl)acetamide], the inhibition at 10 µM amounted to 21% in test [1] and 79% in test [2].
On the same counts, the results for `COc1ccc(S(=O)(=O)N2CCCCC2COCC(=O)NCCC2CCC(C(c3cccs3)N(C)C)CC2)cc1OC` (centres unmarked) [Example 120, 2-((1-(3,4-dimethoxyphenylsulfonyl)piperidin-2-yl)methoxy)-N-(2-(4-((dimethylamino)(thiophen-2-yl)methyl)cyclohexyl)ethyl)acetamide] are -14% and 91%.
Turning to `CN(C)C(CCc1ccccc1)C1CCC(CNC(=O)COCCN(C)S(=O)(=O)c2ccc(OC(F)(F)F)cc2)CC1` (centres unmarked) [Example 567], in test [1], the “B1R Ant. r [10 μM] % Inhibition” value is listed as 42%. The “5-HT (inhibition of reuptake of serotonin, % inhibition)” value in test [2] was 93%.
Take `CN(C)C(c1cccs1)C1CCC(CNC(=O)COCCN(Cc2ccccc2)S(=O)(=O)c2ccccc2)CC1` (centres unmarked) [Example 102, 2-(2-(N-benzylphenylsulfonamido)ethoxy)-N-((4-((dimethylamino)(thiophen-2-yl)methyl)cyclohexyl)methyl)acetamide]: the inhibition at 10 µM in test [1] is -12%; in test [2], 92%.
`CN(C)C(c1cccs1)C1CCC(CCNC(=O)COCCN2CCN(S(=O)(=O)c3ccccc3)CC2)CC1` (centres unmarked) [Example 99, N-(2-(4-((dimethylamino)(thiophen-2-yl)methyl)cyclohexyl)ethyl)-2-(2-(4-(phenylsulfonyl)piperazin-1-yl)ethoxy)acetamide]: the inhibition at 10 µM was -8% in test [1] and 95% in test [2].
As for `CN(C)C(CCc1ccccc1)C1CCC(CNC(=O)COC2CCN(S(=O)(=O)c3ccc(Cl)cc3)C2)CC1` (centres unmarked) [Example 557], the “B1R Ant. r [10 μM] % Inhibition” value in test [1] came out at 29%. Besides, the “5-HT (inhibition of reuptake of serotonin, % inhibition)” value in test [2] was determined as 88%.
With `COc1ccc(S(=O)(=O)N2CCCCC2COCC(=O)NCC2CCC(C(c3ccccc3)N(C)C)CC2)c(OC)c1` (centres unmarked) [Example 106, 2-((1-(2,4-dimethoxyphenylsulfonyl)piperidin-2-yl)methoxy)-N-((4-((dimethylamino)(phenyl)methyl)cyclohexyl)methyl)acetamide], the inhibition at 10 µM in test [1] stood at 13%; in test [2] it was 85%.
On to `CN(C)C(CCc1ccccc1)C1CCC(CNC(=O)COCCN(C)S(=O)(=O)c2cccc(C(F)(F)F)c2)CC1` (centres unmarked) [Example 556], for which, in test [1], the “B1R Ant. r [10 μM] % Inhibition” value is 20%. Moreover, the “5-HT (inhibition of reuptake of serotonin, % inhibition)” value in test [2] amounted to 86%.
On the same counts, the results for `COc1cc(C)c(S(=O)(=O)N2CCC(OCC(=O)NCC3CCC(C(CCc4ccccc4)N(C)C)CC3)C2)c(C)c1` (centres unmarked) [Example 565] are 104% and 94%.
As to `CN(C)C(c1ccc(F)cc1)C1CCC(CCNC(=O)COCCN(C)S(=O)(=O)c2ccc(Cl)cc2Cl)CC1` (centres unmarked) [Example 586], the “B1R Ant. r [10 μM] % Inhibition” value in test [1] was 76%. Further, in test [2], the “5-HT (inhibition of reuptake of serotonin, % inhibition)” value came to 73%.
On the same counts, the results for `CN(C)C(c1ccc(F)cc1)C1CCC(CCNC(=O)COC2CCN(S(=O)(=O)c3ccccc3)CC2)CC1` (centres unmarked) [Example 553] are −14% and 94%.
The corresponding values for `CN(C)C(CCc1ccccc1)C1CCC(CNC(=O)COC2CCN(S(=O)(=O)c3ccc(F)cc3)C2)CC1` (centres unmarked) [Example 574] are 26% and 94%.
Take `CN(C)C(c1ccccc1)C1CCC(CNC(=O)COC2CCCN(S(=O)(=O)c3ccccc3)C2)CC1` (centres unmarked) [Example 114, N-((4-((dimethylamino)(phenyl)methyl)cyclohexyl)methyl)-2-(1-(phenylsulfonyl)piperidin-3-yloxy)acetamide]: the inhibition at 10 µM in test [1] is 8%; in test [2], 96%.
As for `CN(C)C(c1ccc(F)cc1)C1CCC(CNC(=O)COC2CCN(S(=O)(=O)c3ccccc3)CC2)CC1` (centres unmarked) [Example 568], in test [1], the “B1R Ant. r [10 μM] % Inhibition” value came out at 12%. Further, the “5-HT (inhibition of reuptake of serotonin, % inhibition)” value in test [2] is 97%.
For the compound `COc1ccc(S(=O)(=O)N2CCCCC2COCC(=O)NCC2CCC(C(CCc3ccccc3)N(C)C)CC2)cc1OC` (centres unmarked) [Example 570], the “B1R Ant. r [10 μM] % Inhibition” value in test [1] is 4%. In addition, in test [2] (10 µM), the “5-HT (inhibition of reuptake of serotonin, % inhibition)” value came to 87%.
Consider `CCN(CCOCC(=O)NCC1CCC(C(c2cccc(F)c2)N(C)C)CC1)S(=O)(=O)c1c(C)cc(OC)c(C)c1C` (centres unmarked) [Example 117, N-((4-((dimethylamino)(3-fluorophenyl)methyl)cyclohexyl)methyl)-2-(2-(N-ethyl-4-methoxy-2,3,6-trimethylphenylsulfonamido)ethoxy)acetamide], for which the figures for the inhibition at 10 µM in test [1] and in test [2] were 77% and 94%, respectively.
Take `COc1ccc(S(=O)(=O)N2CCCCC2COCC(=O)NCC2CCC(C(CCc3ccccc3)N(C)C)CC2)c(OC)c1` (centres unmarked) [Example 486]: in test [1], the “B1R Ant. r [10 μM] % Inhibition” value is 20%. The “5-HT (inhibition of reuptake of serotonin, % inhibition)” value in test [2] (10 µM) worked out at 73%.
On to `CN(C)C(c1ccccc1)C1CCC(NC(=O)COCCN(C)S(=O)(=O)c2c(Cl)cccc2Cl)CC1` (centres unmarked) [Example 135, 2-(2-(2,6-dichloro-N-methylphenylsulfonamido)ethoxy)-N-(4-((dimethylamino)(phenyl)methyl)cyclohexyl)acetamide], for which the inhibition at 10 µM was found to be 29% in test [1] and 83% in test [2].
On to `Cc1cc(C)c(S(=O)(=O)N(C)CCOCC(=O)NC2CCC(C(c3ccccc3)N(C)C)CC2)c(C)c1` (centres unmarked) [Example 63, N-(4-((dimethylamino)(phenyl)methyl)cyclohexyl)-2-(2-(N,2,4,6-tetramethylphenylsulfamido)ethoxy)acetamide], for which the “B1R Ant. r [10 μM] % Inhibition” value in test [1] is recorded as 8%. The “5-HT (inhibition of reuptake of serotonin, % inhibition)” value in test [2] is recorded as 79%.
Take `COc1ccc(S(=O)(=O)N2CCCCC2COCC(=O)NCCC2CCC(C(c3cccc(F)c3)N(C)C)CC2)cc1OC` (centres unmarked) [Example 581]: the “B1R Ant. r [10 μM] % Inhibition” value in test [1] is on record as 8%. In addition, in test [2] (10 µM), the “5-HT (inhibition of reuptake of serotonin, % inhibition)” value was 70%.
As for `CN(C)C(c1cccs1)C1CCC(CNC(=O)COCC2CCCN(S(=O)(=O)c3ccccc3)C2)CC1` (centres unmarked) [Example 101, N-((4-((dimethylamino)(thiophen-2-yl)methyl)cyclohexyl)methyl)-2-((1-(phenylsulfonyl)piperidin-3-yl)methoxy)acetamide], the inhibition at 10 µM in test [1] turned out to be 27%; in test [2], 94%.
The corresponding values for `COc1cc(C)c(S(=O)(=O)N2CCC(OCC(=O)NCC3CCC(C(c4cccs4)N(C)C)CC3)CC2)c(C)c1C` (centres unmarked) [Example 104, N-((4-((dimethylamino)(thiophen-2-yl)methyl)cyclohexyl)methyl)-2-(1-(4-methoxy-2,3,6-trimethylphenylsulfonyl)piperidin-4-yloxy)acetamide] are -10% and 93%.
As to `COc1cc(C)c(S(=O)(=O)N(CCOCC(=O)NCCC2CCC(C(c3ccc(Cl)cc3)N(C)C)CC2)Cc2ccccc2)c(C)c1` (centres unmarked) [Example 569], the “B1R Ant. r [10 μM] % Inhibition” value in test [1] was 9%. For the same compound, the “5-HT (inhibition of reuptake of serotonin, % inhibition)” value in test [2] is reported as 52%.
`CN(C)C(c1ccccc1)C1CCC(CNC(=O)COC2CCN(S(=O)(=O)c3cccc(C(F)(F)F)c3)C2)CC1` (centres unmarked) [Example 113, N-((4-((dimethylamino)(phenyl)methyl)cyclohexyl)methyl)-2-(1-(3-(trifluoromethyl)phenylsulfonyl)pyrrolidin-3-yloxy)acetamide]: the inhibition at 10 µM stood at 28% in test [1] and 88% in test [2].
Consider `COc1cc(C)c(S(=O)(=O)N(CCOCC(=O)NCCC2CCC(C(c3ccc(F)cc3)N(C)C)CC2)Cc2ccccc2)c(C)c1` (centres unmarked) [Example 547], for which, in test [1], the “B1R Ant. r [10 μM] % Inhibition” value is 30%. In addition, the “5-HT (inhibition of reuptake of serotonin, % inhibition)” value in test [2] was 90%.
Turning to `CN(C)C(c1cccs1)C1CCC(CCNC(=O)COCCN(Cc2ccccc2)S(=O)(=O)c2ccccc2)CC1` (centres unmarked) [Example 116, 2-(2-(N-benzylphenylsulfonamido)ethoxy)-N-(2-(4-((dimethylamino)(thiophen-2-yl)methyl)cyclohexyl)ethyl)acetamide], the inhibition at 10 µM in test [1] turned out to be 14%; in test [2] it was 97%.
As for `COc1ccc(S(=O)(=O)N2CCCCC2COCC(=O)NCC2CCC(C(c3cccs3)N(C)C)CC2)cc1OC` (centres unmarked) [Example 133, 2-((1-(3,4-Dimethoxyphenylsulfonyl)piperidin-2-yl)methoxy)-N-((4-((dimethylamino)(thiophen-2-yl)methyl)cyclohexyl)methyl)acetamide], the inhibition at 10 µM is 7% in test [1] and 88% in test [2].
